Assay results: publication PMC4137327 (Journal of neurochemistry, 2014)
“Also recorded” adds a separate entry of the source. Where two headings read alike, the source gives them in different places. Ends that are not written are not given here.

Legend:
[1] = target: T1, Ang-(1–7) peptidase purified from sheep brain medulla (Ovis aries, UniProt A0ACI6RWG7); assay: Inhibitor profile of 125I-Ang-; format: biochemical; details: cocktail; for effect of inhibitor on peptidase activity (in words): enriched medullary peptidase, 60 min, 37°C
[2] = target: T1, Ang-(1–7) peptidase purified from sheep brain medulla
[3] = tested on: ACE; details: read-out: reported IC50; ref Doulut et al. 1993; cited from earlier work
[4] = target: Ang-(1–7) peptidase activity in CSF (Ovis aries, UniProt A0ACI6RWG7); assay: Inhibitor profile of 125I-Ang-; format: biochemical, sheep; details: CSF 25 µl, cocktail, 60 min, 37°C

O[C@@H](CS)[C@@H](O)CS (racemic) [DTT, dithiothreitol]
effect of inhibitor on peptidase activity (in words) ([1]; inhibitor 5 mM, N=3): partial inhibition

CC[C@H](C)[C@H](NC(=O)[C@H](Cc1ccc(O)cc1)NC(=O)[C@@H](NC(=O)[C@H](CCCNC(=N)N)NC(=O)[C@@H](N)CC(=O)O)C(C)C)C(=O)N[C@@H](Cc1cnc[nH]1)C(=O)N1CCC[C@H]1C(=O)N[C@@H](Cc1ccccc1)C(=O)O [Ang II]
hydrolysis of unlabeled peptide by the peptidase ([2]; HPLC analysis, unlabeled peptide 0.4 mM, 24 hours, 37°C): < 5%

CC(C)C[C@H](NC(=O)[C@@H](CC(=O)NO)Cc1ccccc1)C(=O)O [JMV-390, N-[3-[(hydroxyamino)carbonyl]-1-oxo-2(R)-benzylpropyl]-L-leucine]
effect on the Ang-(1–4) peak (in words) ([1]; 1 nM JMV-390, purified enzyme): reduced the Ang-(1–4) peak | effect on peptidase activity (in words) ([1]; 100 nM JMV-390, purified enzyme): essentially abolished activity | effect on the peak of Ang-(1–4) from unlabeled Ang-(1–7) (in words) ([2]; 10 µM JMV-390, Ang-(1–7) 400 µM, 24 hours, 37°C (Figure 6B)): abolished | IC50 [3]: 70 µM

O=S(=O)(F)Cc1ccccc1 [PMSF, phenylmethylsulfonyl fluoride]
effect of inhibitor on peptidase activity (in words) ([1]; inhibitor 100 µM, N=3): insensitive; also recorded: did not inhibit activity

c1cnc2c(c1)ccc1cccnc12 [o-phenanthroline]
effect of inhibitor on peptidase activity (in words) ([1]; inhibitor 1 mM, N=3): abolished peptidase activity; also recorded: sensitive

DRVYIHPFHL [Ang I]
hydrolysis of unlabeled peptide by the peptidase ([2]; sheep, purified brain medulla peptidase, 24 h, 400 µM): < 5%

aprotinin
effect of inhibitor on peptidase activity (in words) ([1]; inhibitor 80 µM): insensitive | Inhibitor Sensitivity (% of control) ([4]; inhibitor 80 µM): 100 % of control

B1: soybean trypsin inhibitor (protein, UniProt P01070 25-205, looked up)
Trypsin inhibitor A: DFVLDNEGNPLENGGTYYILSDITAFGGIRAAPTGNERCPLTVVQSRNELDKGIGTIISSPYRIRFIAEGHPLSLKFDSFAVIMLCVGIPTEWSVVEDLPEGPAVKIGENKDAMDGWFRLERVSDDEFNNYKLVFCPQQAEDDKCGDIGISIDHDDGTRRLVVSKNKPLVVQFQKLDKESL
effect of inhibitor on peptidase activity (in words) ([1]; inhibitor 100 µM, N=3): insensitive | Inhibitor Sensitivity (% of control) ([4]; inhibitor 100 µM, mean ± SEM): 101 ± 2 % of control
